Experimental data published in the supplement of paper PMC10307832.

Assays:
Assay in all cases: relative viability (nuclei count vs DMSO), 5 days (fraction); higher = more cells survive
[1] = test system: PC-3 [JPC-3]
Summary of the method: (§1)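 Cells from lung cancer lines were seeded into 1536-well plates and, one day later, dosed by pin tool. Treatments were either a single drug or a fixed dose of an anchor drug with five library-drug doses (not always all listed) in √10 steps. After 5 days, nuclei were stained in a one-step fixation (final 0.05% Triton X-100, 1% formaldehyde, 1 ug/ml Hoechst) and counted on 4× images, and relative viability is the treated-to-vehicle nuclei ratio, as the median of duplicate plates.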

[2] = test system: A-427
Summary of the method: as §1

[3] = test system: NCI-H1975
Summary of the method: as §1

[4] = test system: HCC-78
Summary of the method: as §1

[5] = test system: HOP-62
Summary of the method: as §1

[6] = test system: NCI-H1792
Summary of the method: as §1

[7] = test system: NCI-H647
Summary of the method: as §1

[8] = test system: NCI-H1915
Summary of the method: as §1

[9] = test system: SK-LU-1
Summary of the method: as §1

[10] = test system: NCI-H2228
Summary of the method: as §1

[11] = test system: NCI-H358
Summary of the method: as §1

[12] = test system: LXF-289
Summary of the method: as §1

[13] = test system: LC-2-ad
Summary of the method: as §1

[14] = test system: HCC-15
Summary of the method: as §1

[15] = test system: NCI-H2126
Summary of the method: as §1

[16] = test system: NCI-H2347
Summary of the method: as §1

[17] = test system: NCI-H1734
Summary of the method: as §1

[18] = test system: NCI-H1755
Summary of the method: as §1

[19] = test system: SW 1573
Summary of the method: as §1

[20] = test system: LOU-NH91
Summary of the method: as §1

[21] = test system: NCI-H460
Summary of the method: as §1

[22] = test system: RERF-LC-KJ
Summary of the method: as §1

## C[C@@H]1CN(CC(=O)Nc2ccc3c(c2)Cc2cccc(-c4cc(=O)cc(N5CCOCC5)o4)c2S3)C[C@H](C)O1 + CS(=O)(=O)CCNCc1ccc(-c2ccc3ncnc(Nc4ccc(OCc5cccc(F)c5)c(Cl)c4)c3c2)o1 [Lapatinib] (partner 2 µM)
[1]; first compound 0.04 µM
  relative viability: 0.512
[1]; first compound 0.1265 µM
  relative viability: 0.394
[1]; first compound 0.4 µM
  relative viability: 0.52
[1]; first compound 4 µM
  relative viability: 0.454
[2]; first compound 0.04 µM
  relative viability: 0.898
[2]; first compound 0.1265 µM
  relative viability: 1.05
[2]; first compound 0.4 µM
  relative viability: 1.18
[2]; first compound 4 µM
  relative viability: 1.01
[3]; first compound 0.04 µM
  relative viability: 0.871
[3]; first compound 0.1265 µM
  relative viability: 0.803
[3]; first compound 0.4 µM
  relative viability: 0.912
[3]; first compound 4 µM
  relative viability: 0.754
[4]; first compound 0.04 µM
  relative viability: 0.64
[4]; first compound 0.1265 µM
  relative viability: 0.705
[4]; first compound 0.4 µM
  relative viability: 0.702
[4]; first compound 4 µM
  relative viability: 0.703
[5]; first compound 0.04 µM
  relative viability: 0.549
[5]; first compound 0.1265 µM
  relative viability: 1.01
[5]; first compound 0.4 µM
  relative viability: 1.19
[5]; first compound 4 µM
  relative viability: 0.953
[6]; first compound 0.04 µM
  relative viability: 0.824
[6]; first compound 0.1265 µM
  relative viability: 0.832
[6]; first compound 0.4 µM
  relative viability: 0.856
[6]; first compound 4 µM
  relative viability: 0.849
[7]; first compound 0.04 µM
  relative viability: 1.02
[7]; first compound 0.1265 µM
  relative viability: 1.07
[7]; first compound 0.4 µM
  relative viability: 1.16
[7]; first compound 4 µM
  relative viability: 0.638
[8]; first compound 0.04 µM
  relative viability: 0.872
[8]; first compound 0.1265 µM
  relative viability: 0.956
[8]; first compound 0.4 µM
  relative viability: 1.06
[8]; first compound 4 µM
  relative viability: 0.785
[9]; first compound 0.04 µM
  relative viability: 0.869
[9]; first compound 0.1265 µM
  relative viability: 0.959
[9]; first compound 0.4 µM
  relative viability: 0.877
[9]; first compound 4 µM
  relative viability: 0.707
[10]; first compound 0.04 µM
  relative viability: 1.23
[10]; first compound 0.1265 µM
  relative viability: 1.05
[10]; first compound 0.4 µM
  relative viability: 0.974
[10]; first compound 4 µM
  relative viability: 0.618
[11]; first compound 0.04 µM
  relative viability: 0.356
[11]; first compound 0.1265 µM
  relative viability: 0.427
[11]; first compound 0.4 µM
  relative viability: 0.39
[11]; first compound 4 µM
  relative viability: 0.417
[12]; first compound 0.04 µM
  relative viability: 0.879
[12]; first compound 0.1265 µM
  relative viability: 0.962
[12]; first compound 0.4 µM
  relative viability: 0.904
[12]; first compound 4 µM
  relative viability: 0.835
[13]; first compound 0.04 µM
  relative viability: 1
[13]; first compound 0.1265 µM
  relative viability: 0.928
[13]; first compound 0.4 µM
  relative viability: 0.672
[13]; first compound 4 µM
  relative viability: 0.875
[14]; first compound 0.04 µM
  relative viability: 0.866
[14]; first compound 0.1265 µM
  relative viability: 0.736
[14]; first compound 0.4 µM
  relative viability: 0.929
[14]; first compound 4 µM
  relative viability: 0.763
[15]; first compound 0.04 µM
  relative viability: 0.762
[15]; first compound 0.1265 µM
  relative viability: 0.757
[15]; first compound 0.4 µM
  relative viability: 0.764
[15]; first compound 4 µM
  relative viability: 0.763
[16]; first compound 0.04 µM
  relative viability: 0.79
[16]; first compound 0.1265 µM
  relative viability: 1.04
[16]; first compound 0.4 µM
  relative viability: 0.988
[16]; first compound 4 µM
  relative viability: 0.875
[17]; first compound 0.04 µM
  relative viability: 1.02
[17]; first compound 0.1265 µM
  relative viability: 1.17
[17]; first compound 0.4 µM
  relative viability: 1.03
[17]; first compound 4 µM
  relative viability: 1.23
[18]; first compound 0.04 µM
  relative viability: 1.1
[18]; first compound 0.1265 µM
  relative viability: 0.995
[18]; first compound 0.4 µM
  relative viability: 1
[18]; first compound 4 µM
  relative viability: 0.932
[19]; first compound 0.04 µM
  relative viability: 1.1
[19]; first compound 0.1265 µM
  relative viability: 1.14
[19]; first compound 0.4 µM
  relative viability: 1.18
[19]; first compound 4 µM
  relative viability: 1.08
[20]; first compound 0.04 µM
  relative viability: 0.689
[20]; first compound 0.1265 µM
  relative viability: 0.792
[20]; first compound 0.4 µM
  relative viability: 0.676
[20]; first compound 4 µM
  relative viability: 0.733
[21]; first compound 0.04 µM
  relative viability: 0.941
[21]; first compound 0.1265 µM
  relative viability: 1.02
[21]; first compound 0.4 µM
  relative viability: 1.04
[21]; first compound 4 µM
  relative viability: 0.799
[22]; first compound 0.04 µM
  relative viability: 0.873
[22]; first compound 0.1265 µM
  relative viability: 0.877
[22]; first compound 0.4 µM
  relative viability: 0.808
[22]; first compound 4 µM
  relative viability: 0.799
